From ChEMBL document CHEMBL1155535, “Synthesis and biological evaluation of tricyclic anilinopyrimidines as IKKbeta inhibitors” (Bioorg Med Chem Lett, 2010)
pIC50: −log10 of the molar value. ≈ marks a conversion by molar mass, not a printed value.

Columns and labels:
[1] = target: T1, Inhibitor of nuclear factor kappa-B kinase subunit beta (Homo sapiens, UniProt O14920); assay: Inhibition of FLAG-tagged IKK-beta after 30 mins
T1 sequence (O14920 whole entry): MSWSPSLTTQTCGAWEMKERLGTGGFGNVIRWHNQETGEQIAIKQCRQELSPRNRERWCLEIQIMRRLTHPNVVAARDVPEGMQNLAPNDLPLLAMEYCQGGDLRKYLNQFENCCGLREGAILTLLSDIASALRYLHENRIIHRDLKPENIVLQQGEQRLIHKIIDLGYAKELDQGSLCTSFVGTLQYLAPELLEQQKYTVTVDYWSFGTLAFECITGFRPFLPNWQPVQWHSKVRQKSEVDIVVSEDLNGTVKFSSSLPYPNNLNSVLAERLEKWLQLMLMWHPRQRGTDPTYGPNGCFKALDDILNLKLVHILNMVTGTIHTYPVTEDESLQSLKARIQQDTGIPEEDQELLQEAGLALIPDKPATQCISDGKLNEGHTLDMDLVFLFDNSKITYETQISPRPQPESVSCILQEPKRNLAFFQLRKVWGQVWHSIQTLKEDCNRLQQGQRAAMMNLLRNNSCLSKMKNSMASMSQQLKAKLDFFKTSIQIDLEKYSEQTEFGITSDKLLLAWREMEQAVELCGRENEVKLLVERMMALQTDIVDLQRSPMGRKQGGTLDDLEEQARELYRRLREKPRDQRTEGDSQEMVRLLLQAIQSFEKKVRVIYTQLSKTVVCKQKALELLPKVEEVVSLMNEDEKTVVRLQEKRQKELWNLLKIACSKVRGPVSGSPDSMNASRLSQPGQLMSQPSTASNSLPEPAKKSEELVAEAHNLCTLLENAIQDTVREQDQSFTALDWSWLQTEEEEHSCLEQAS

[2] = Membrane permeability by PAMPA assay
LoVo = assay: Cytotoxicity against human LoVo cells assessed as growth inhibition; assay type: functional, cell-based
[3] = Aqueous solubility in at pH 7.4
[4] = target: T1, Inhibitor of nuclear factor kappa-B kinase subunit beta; assay: Inhibition of IKK-beta expressed in human HeLa cells transfected with pNFkappaB-luciferase assessed inhibition of TNF-alpha-induced NF-kappaB expression by luciferase reporter gene assay; assay type: cell-based
[5] = Apparent permeability from apical to basolateral side in human Caco-2 cells
[6] = Apparent permeability from basolateral to apical side in human Caco-2 cells

Row | Structure (SMILES) | pIC50 [1] | Papp [2] [×10⁻⁶ cm/s] | solubility [3] [µg/mL] | pIC50 [4] | Papp A→B [5] [×10⁻⁶ cm/s] | Papp B→A [6] [×10⁻⁶ cm/s] | pIC50 (LoVo)
1 | CC(C)=CC(=O)Nc1ccc2c(c1)CCc1cnc(Nc3ccc(S(N)(=O)=O)cc3)nc1-2 | 5.80 |  |  | 5.08 |  |  | 6.25
2 | NS(=O)(=O)c1ccc(Nc2ncc3c(n2)-c2ccc(NC(=O)C4CCCC4)cc2CC3)cc1 | 5.66 |  |  | 5.80 |  |  | 6.08
3 | CC(C)CC(=O)Nc1ccc2c(c1)CCc1cnc(Nc3ccc(S(N)(=O)=O)cc3)nc1-2 | 5.71 |  |  | 5.19 |  |  | 6.42
4 | NS(=O)(=O)c1ccc(Nc2ncc3c(n2)-c2ccc(NC(=O)Cc4cccs4)cc2CC3)cc1 | 6.29 | 0.51 | 6 (≈ 12.2 µM) | 6.08 |  |  | 6.54
5 | NS(=O)(=O)c1ccc(Nc2ncc3c(n2)-c2ccc(NC(=O)Cc4ccsc4)cc2CC3)cc1 | 6.51 |  |  | 6.01 |  |  | 6.31
6 | NS(=O)(=O)c1ccc(Nc2nccc(-c3ccsc3)n2)cc1 | 6.74 |  |  | 5.77 |  |  | 5.58
7 | NS(=O)(=O)c1ccc(Nc2ncc3c(n2)-c2ccc(NC(=O)Cc4ccccc4)cc2CC3)cc1 | 5.62 | 3.37 | 9 (≈ 18.5 µM) | 5.75 |  |  | 6.72
8 | CN(C)CCCNS(=O)(=O)c1ccc(Nc2ncc3c(n2)-c2ccsc2CC3)cc1 | 6.11 |  |  | 6.21 |  |  | 5.96
9 | O=S(=O)(NCCO)c1ccc(Nc2ncc3c(n2)-c2ccsc2CC3)cc1 | 5.91 |  |  | 5.71 |  |  | 6.10
10 | CN(C)CCNS(=O)(=O)c1ccc(Nc2ncc3c(n2)-c2ccsc2CC3)cc1 | 6.11 | 1.54 | 36 (≈ 83.8 µM) | 6.29 | < 1 | 3.08 | 6.17
11 | CC(C)(C)CC(=O)Nc1ccc2c(c1)CCc1cnc(Nc3ccc(S(N)(=O)=O)cc3)nc1-2 | 6.09 | 2.3 | 9 (≈ 19.3 µM) | 5.87 |  |  | 6.43

Second part, led by results:

Row | pIC50 [1] | Papp [2] [×10⁻⁶ cm/s] | solubility [3] [µg/mL] | pIC50 [4] | Papp A→B [5] [×10⁻⁶ cm/s] | Papp B→A [6] [×10⁻⁶ cm/s] | Structure (SMILES) | pIC50 (LoVo)
12 | 7.40 | < 0.01 | 2.3 (≈ 6.45 µM) | 6.19 |  |  | COc1ccc(-c2ccnc(Nc3ccc(S(N)(=O)=O)cc3)n2)cc1 | 5.59
13 | 6.26 | 1.8 | < 1 | 6.38 |  |  | COc1ccc2c(c1)CCc1cnc(Nc3ccc(S(N)(=O)=O)cc3)nc1-2 | 6.12
14 | 8.00 | 0.6 | < 1 | 5.61 |  |  | CC(C)(C)CC(=O)Nc1ccc(-c2ccnc(Nc3ccc(S(N)(=O)=O)cc3)n2)cc1 | 6.10
15 | 5.95 |  |  | 5.84 |  |  | CC(C)C(=O)Nc1ccc2c(c1)CCc1cnc(Nc3ccc(S(N)(=O)=O)cc3)nc1-2 | 6.18
16 | 6.55 |  |  |  |  |  | COC(=O)CC(=O)Nc1ccc2c(c1)CCc1cnc(Nc3ccc(S(N)(=O)=O)cc3)nc1-2 | 6.21
17 | 5.74 |  |  | 5.80 |  |  | COc1ccc(CC(=O)Nc2ccc3c(c2)CCc2cnc(Nc4ccc(S(N)(=O)=O)cc4)nc2-3)cc1 | 6.14
18 | 7.30 | < 0.01 | 1 (≈ 2.18 µM) | 5.35 |  |  | NS(=O)(=O)c1ccc(Nc2nccc(-c3ccc(NC(=O)Cc4ccccc4)cc3)n2)cc1 | 6.74
19 | 5.74 | 2.92 | 7 (≈ 19.9 µM) | 5.84 |  |  | NS(=O)(=O)c1ccc(Nc2ncc3c(n2)-c2ccccc2CC3)cc1 | 5.98
20 |  |  |  | 5.39 |  |  | NS(=O)(=O)c1ccc(Nc2ncc3c(n2)-c2ccccc2CCC3)cc1 | 5.38
21 | 4.70 | 2.26 | 1 (≈ 3.06 µM) |  |  |  | NS(=O)(=O)c1ccc(Nc2nccc(-c3ccccc3)n2)cc1 | 5.48
22 | 7.70 | 0.3 | < 1 | 5.16 |  |  | NS(=O)(=O)c1ccc(Nc2nccc(-c3ccc(NC(=O)Cc4cccs4)cc3)n2)cc1 | 6.60
23 | 6.89 |  |  | 5.47 |  |  | O=S(=O)(NCCO)c1ccc(Nc2nccc(-c3ccsc3)n2)cc1 | 5.39
24 | 6.10 | 0.38 | < 1 | 6.10 | 34 | 20.7 | NS(=O)(=O)c1ccc(Nc2ncc3c(n2)-c2ccsc2CC3)cc1 | 6.48
25 | 6.77 |  |  | 5.97 |  |  | CN(C)CCCNS(=O)(=O)c1ccc(Nc2nccc(-c3ccsc3)n2)cc1 | 5.47
26 | 6.64 | 2.4 | > 100 | 6.11 | < 1 | 13.2 | CN(C)CCNS(=O)(=O)c1ccc(Nc2nccc(-c3ccsc3)n2)cc1 | 5.55
27 | 5.65 |  |  |  |  |  | NS(=O)(=O)c1ccc(Nc2ncc3c(n2)-c2ccc(NC(=O)c4ccco4)cc2CC3)cc1 | 5.97
28 | 7.72 |  | 3 (≈ 8.66 µM) | 5.77 |  |  | Cc1ccc(-c2ccnc(Nc3ccc(S(N)(=O)=O)cc3)n2)s1 | 5.78
